In patent US5523223A, “Ketoester reductase for conversion of keto acid esters to optically active hydroxy acid esters” (priority 1992, dated 1996):

Columns and labels:
[1] = tested on: KERed from C. parapsilosis; assay: Inhibition study of the KERed (influence of metal cations and reagents); format: biochemical, Candida parapsilosis; conditions: for Influence on KERed activity (in words): summary statements of the inhibition study
Excerpt: For the following investigation, partially purified enzyme (after Q-sepharose chromatography, 67-times enrichment) was used. […]
5-oxohexanoic acid ethyl ester
TEA-NaOH-buffer, 0.1 M; pH 7.9
The influence of various metal cations and reagents upon the enzymatic activity was investigated in tests in which the test preparation described under example 3.B was used.

[2] = tested on: KERed from Candida parapsilosis; assay: Kinetic characterization of the KERed; format: biochemical; conditions: partially purified enzyme; for Vmax: referred to 2-butanone
[3] = tested on: KERed from P. acidovorans; assay: Screening of crude extract for ketoester reductase activity (photometric NAD(P)H decrease); format: biochemical, Pseudomonas acidovorans; conditions: 8 mM ketoester, TEA-NaOH buffer pH 7, mU/mg protein; for NADH dependent specific activity: 0.2 mM NADH
Method: (§1) For screening collection strains of the DSM (German Collection of Microorganisms and Cell Cultures, Braunschweig) is cultured in the DSM recommended medium, the cell mass is harvested by centrifugation and disintegrated by wet milling. A permanent deposit of Candida parapsilosis DSM 70125 has been deposited on 29 Mar. 1979 in accordance with the requirements of the Budapest Treaty. The address of the depository is as follows: German Collection of Microorganisms and Cell Cultures, DSM-Mascheroder Weg 1B, Braunschweig, Germany. The supernatant served as the enzyme source (crude extract) and was investigated for ketoester reductase activity. The test was carried out photometrically and the test mixture contained the following components.
(§2) 0.1M triethanoleamine (TEA)-NaOH-Buffer, pH 7
(§3) Limited amounts of the crude extract.
(§4) The NAD(P)H-decrease at 334nm over a period of 1 minute was followed: For activity calculation, an absorption coefficient of […] was used. […] One U (unit) corresponds to the consumption and conversion of 1 μmole of reduced coenzyme per minute.

[4] = tested on: KERed from C. parapsilosis; assay: as above; format: biochemical, Candida parapsilosis; conditions: 8 mM ketoester, TEA-NaOH buffer pH 7, mU/mg protein; for NADH dependent specific activity: 0.2 mM NADH; for NADPH-dependent specific activity: 0.2 mM NADPH
Method: as §1, §2, §3, §4

KERed from Y. cellobiosa = assay: as above; format: biochemical, Yarrowinia cellobiosa; conditions: 8 mM ketoester, TEA-NaOH buffer pH 7, mU/mg protein; for NADH dependent specific activity: 0.2 mM NADH; for NADPH-dependent specific activity: 0.2 mM NADPH
Method: as §1, §2, §3, §4

[5] = tested on: KERed from R. erythropolis; assay: as above; format: biochemical, Rhodococcus erythropolis; conditions: 0.2 mM NADH, 8 mM ketoester, TEA-NaOH buffer pH 7, mU/mg protein
Method: as §1, §2, §3, §4

[6] = compound 0.1 mM, 35 mM 5-oxohexanoic acid ethyl ester, 0.2 mM NADH, pH 7.9
[7] = compound 1.0 mM, 35 mM 5-oxohexanoic acid ethyl ester, 0.2 mM NADH, pH 7.9

| Compound | Residual Activity [1, 6] [%] | Residual Activity [1, 7] [%] | Influence on KERed activity (in words) [1] | also measured |
| --- | --- | --- | --- | --- |
| CCO [Ethanol] |  |  |  | Residual Activity ([1]; Ethanol 5%): 30%; Km [2]: 3400 µM; Vmax [2]: 42% |
| CCOC(=O)CCC(C)=O [LSEE, levulinic acid ethyl ester] |  |  |  | NADH dependent specific activity [3]: 4.1 mU/mg; NADH dependent specific activity [4]: 85.1 mU/mg; NADPH-dependent specific activity [4]: 1.3 mU/mg; NADH dependent specific activity (KERed from Y. cellobiosa): 41.1 mU/mg; NADPH-dependent specific activity (KERed from Y. cellobiosa): 4.0 mU/mg; Km [2]: 1730 µM; Vmax [2]: 12%; NADH dependent specific activity [5]: 87.1 mU/mg |
| CCOC(=O)CC(C)=O [AEEE, acetoacetic acid ethyl ester] |  |  |  | NADH dependent specific activity [3]: 49.0 mU/mg; NADH dependent specific activity (KERed from Y. cellobiosa): 103.1 mU/mg; NADPH-dependent specific activity (KERed from Y. cellobiosa): 5.0 mU/mg; Km [2]: 122 µM; Vmax [2]: 79%; NADH dependent specific activity [5]: 153.0 mU/mg |
| CCCC(=O)CC(=O)OCC [BEEE, butyrylacetic acid ethy ester] |  |  |  | NADH dependent specific activity [3]: 11.6 mU/mg; NADPH-dependent specific activity ([3]; 0.2 mM NADPH): 15.6 mU/mg; NADH dependent specific activity [4]: 49.0 mU/mg; NADPH-dependent specific activity [4]: 25.0 mU/mg; NADH dependent specific activity (KERed from Y. cellobiosa): 20.3 mU/mg; Km [2]: 1300 µM; Vmax [2]: 5%; NADH dependent specific activity [5]: 3.0 mU/mg |
| N[C@@H](CCC(=O)N[C@@H](CS)C(=O)NCC(=O)O)C(=O)O [Glutathione (reduced), Glutathione] | 100 | 100 |  |  |
| [Fe+3] [Fe^3+] | 100 |  |  |  |
| O=C(O)c1cc[c]([Hg+])cc1.[OH-] [p-Hydroxymercuribenzoate] | 0 | 0 | Strong inhibition |  |
| [Hg+2] [Hg^2+] | 0 | 0 | Rapid deactivation |  |
| Cl.NCCc1ccc(S(=O)(=O)F)cc1 [Pefabloc] |  | 100 |  |  |
| NC(=O)CI [Iodoacetamide] | 77 | 17.5 | Strong inhibition |  |
| CCN1C(=O)C=CC1=O [N-ethylmaleimide] | 70 | 47 |  |  |
| CCOC(=O)OC(=O)OCC [Diethyl Pyrocarbonate] | 100 | 100 |  |  |
| [Mn+2] [Mn^2+] | 84 | 80 |  |  |
| [Ag+] [Ag^+] | 0 | 0 | Rapid deactivation |  |
| [Ni+2] [Ni^2+] | 10 | 0 | Rapid deactivation |  |
| [Cu+2] [Cu^2+] | 0 | 0 | Rapid deactivation |  |
